Literature values in patent publication US6316468A, “Phenylindole derivatives as 5-HT2A receptor antagonists” (Merck Sharp & Dohme Ltd., priority 1997, dated 2001).

How the values were obtained:
[1] = tested on: apomorphine-induced stereotyped behaviour; settings: animal models, preclinical studies
[2] = tested on: human dopamine D2 receptor
[3] = schizophrenic patients, multicentre, placebo-controlled study

SMILES: COc1cccc(C(O)C2CCN(CCc3ccc(F)cc3)CC2)c1OC (single isomer, unassigned) [MDL-100,907, (+)-α-(2,3-dimethoxyphenyl)-1-[2-(4-fluorophenyl)-ethyl]-4-piperidinemethanol]
- block of apomorphine-induced stereotyped behaviour [1]: failed to block apomorphine-induced stereotyped behaviour
- antagonism of human 5-HT2A receptors (human 5-HT2A receptors): potent antagonist
- activity at the human dopamine D2 receptor [2]: essentially devoid of activity
- efficacy for antipsychotic potential [3]: demonstrated efficacy
